Laboratory results published in EP1641803B1, “THIENOPYRIMIDINE DERIVATIVES AS POTASSIUM CHANNEL INHIBITORS” (Xention Limited, priority 2003, dated 2004).
pIC50: −log10 of the molar value.

Experiments:
human Kv1.5 = target: T1, human Kv1.5 (Homo sapiens, UniProt P22460); assay: Kv1.5 Rb+ Efflux Assay; assay type: cell-based; conditions: inhibition of 86Rb+ efflux through Kv1.5; cells stably transfected with human Kv1.5; 10 point concentration response curves n=2; normalised to 2.5mM 4 amino-pyridine block
T1 construct: expressed in transfected cells
Procedure: The pore of a potassium channel is permeable to other monovalent cations such as Rb^+ and Tl^+. Analysis of cellular efflux of potassium channel permeable ions enables potassium channel activity to be monitored directly. Cells stably transfected with cDNA for human Kv1.5 (in pEF6::VA-His-TOPO) were grown in Dulbecco's Modified Eagle media (DMEM) alpha supplemented with 10% Fetal Calf Serum (FCS), 20 µl/ml penicillin (5000U/ml) streptomycin (5000µg/ml), 10µl/ml [100x] glutamine, and blasticidin (7.5µg/ml). Cells were dispensed into 96 well cellstar TC plates and allowed to grow until a confluent monolayer was visible. On the morning of the assay run, cold media was aspirated using the TECAN plate washer, and a 50µl media spike containing 2µCi/ml (37kBq/ml) ^86Rb^+ added to each well containing cells using the Shallow-Well Matrix Platemate. Plates were placed in a incubator at 37°C for a minimum of 3 hours. Unloaded ^86Rb^+ in the "hot" media was aspirated and each well washed 4x250µl with Earls Balanced Salt Solution (EBSS) which contained 5mM KCl, 140mM NaCl, 2mM CaCl2, 1mM MgSO4, 10mM HEPES, and 5mM glucose, pH 7.4, 290-300 mOsm. These cells were then pre-incubated with 50µl of EBSS +/- test compounds for 10 minutes at room temperature. After the 10 minute incubation, 50µl of modified EBSS which contained 145mM KCl, 2mM CaCl2, 1mM MgSO4, 10mM HEPES, 5mM glucose, pH 7.4, 290-300 mOsm, was added, and the cells were incubated for a further 10 minutes at room temperature. The high KCl EBSS was used to depolarise cells to a membrane potential that would activate Kv1.5 channels. After the final incubation 80µl/100µl of the reaction from each well was transferred to equivalent wells in a Packard "Optiplate" white 96 well plate and counted in a Packard TopCount liquid scintillation counter by Cerenkov emission. Percentage inhibition ^86Rb^+ efflux through Kv1.5 was calculated by normalisation to 2.5mM 4 amino-pyridine control block of Kv1.5. Alternatively cells were loaded with ^85Rb^+ and quantified by atomic absorption spectroscopy. IC50 determinations were derived from 10 point concentration response curves n=2 using the method described above. Data was fitted as variable slope sigmoidal fit using Graphpad Prism (V3.02) software.

hKv1.5 = hKv1.5 (Homo sapiens, UniProt P22460); assay: Kv1.5 Autopatch Electrophysiology (whole cell patch-clamp); assay type: cell-based; conditions: compound at 1µM, room temperature (22-24°C), held at -80mV, step to 0mV for 1000ms, total charge measured
Procedure, shortened: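 Whole-cell automated patch-clamp at 22-24°C, compounds tested at 1µM in external bather (KCl/K-gluconate, pH 7.4; KCl/EGTA pipette). Cells held at -80mV and stepped to 0mV for 1000ms every 5s; only cells with IK > 500 pA and Rseries ≤18 MΩ used. Read-out: total charge over the whole step.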

T1 sequence (P22460 whole entry): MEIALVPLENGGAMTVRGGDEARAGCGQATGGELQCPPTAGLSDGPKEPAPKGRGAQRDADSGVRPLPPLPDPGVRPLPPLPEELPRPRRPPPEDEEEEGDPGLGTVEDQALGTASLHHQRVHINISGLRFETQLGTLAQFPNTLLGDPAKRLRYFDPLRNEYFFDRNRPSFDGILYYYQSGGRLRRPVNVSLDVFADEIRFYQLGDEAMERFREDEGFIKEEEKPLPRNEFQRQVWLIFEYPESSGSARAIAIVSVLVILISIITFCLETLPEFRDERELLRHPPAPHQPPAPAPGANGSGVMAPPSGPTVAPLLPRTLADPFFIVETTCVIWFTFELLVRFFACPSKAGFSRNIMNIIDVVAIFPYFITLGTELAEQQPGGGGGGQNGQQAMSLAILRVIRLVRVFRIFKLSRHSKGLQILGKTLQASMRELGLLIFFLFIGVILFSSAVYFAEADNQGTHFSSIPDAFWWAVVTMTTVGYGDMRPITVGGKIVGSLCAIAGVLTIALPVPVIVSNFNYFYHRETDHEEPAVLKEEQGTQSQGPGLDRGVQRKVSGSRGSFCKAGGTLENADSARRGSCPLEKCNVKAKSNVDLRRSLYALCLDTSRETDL
Sequence of hKv1.5 (P22460 whole entry): as above

| Structure (SMILES) | pIC50 (human Kv1.5) | inhibition at 1 µM (hKv1.5) |
| --- | --- | --- |
| Clc1ccc(-c2csc3ncnc(NCCc4ccccc4)c23)cc1 [Example 136, [5-(4-Chloro-phenyl)-thieno[2,3-d]pyrimidin-4-yl]-phenethyl-amine] | 4.77 | 27.2% |
| Brc1ccc(-c2csc3ncnc(NCCc4ccc5c(c4)OCCO5)c23)cc1 [Example 137, [5-(4-Bromo-phenyl)-thieno[2,3-d]pyrimidin-4-yl]-[2-(2,3-dihydro-benzo[1,4]dioxin-6-yl)-ethyl]-amine] | 4.97 | 96% |
| COc1ccc(-c2csc3ncnc(NCc4ccco4)c23)cc1 [Example 139, Furan-2-ylmethyl-[5-(4-methoxy-phenyl)-thieno[2,3-d]pyrimidin-4-yl]-amine] | 5.77 | 46.9% |
| CCc1sc2ncnc(NCc3ccco3)c2c1-c1ccccc1 [Example 140, (6-Ethyl-5-phenyl-thieno[2,3-d]pyrimidin-4-yl)-furan-2-ylmethyl-amine] | 5.57 | 74.2% |
| CCc1sc2ncnc(NCc3ccco3)c2c1-c1ccoc1 [Example 141, (6-Ethyl-5-furan-3-yl-thieno[2,3-d]pyrimidin-4-yl)-furan-2-ylmethyl-amine] | 5.67 | 81.3% |
| Cc1ccccc1-c1csc2ncnc(NCc3ccccn3)c12 [Example 142, Pyridin-2-ylmethyl-(5-o-tolyl-thieno[2,3-d]pyrimidin-4-yl)-amine] | 5.89 | 49.7% |
| Cc1ccccc1-c1csc2ncnc(NCc3ccco3)c12 [Example 143, Furan-2-ylmethyl-(5-o-tolyl-thieno[2,3-d]pyrimidin-4-yl)-amine] | 5.88 | 63% |
| CC(C)(C)c1ccc(-c2csc3ncnc(NCc4ccccn4)c23)cc1 [Example 144, [5-(4-tert-Butyl-phenyl)-thieno[2,3-d]pyrimidin-4-yl]-pyridin-2-ylmethyl-amine] | 5.88 | 81% |
| CC(C)(C)c1ccc(-c2csc3ncnc(NCc4ccco4)c23)cc1 [Example 145, [5-(4-tert-Butyl-phenyl)-thieno[2,3-d]pyrimidin-4-yl]-furan-2-ylmethyl-amine] | 5.52 | 68% |
| c1ccc(CNc2ncnc3scc(C4CCCCC4)c23)nc1 [Example 146, (5-Cyclohexyl-thieno[2,3-d]pyrimidin-4-yl)-pyridin-2-ylmethyl-amine] | 5.77 | 81% |
| c1coc(CNc2ncnc3scc(C4CCCCC4)c23)c1 [Example 147, (5-Cyclohexyl-thieno[2,3-d]pyrimidin-4-yl)-furan-2-ylmethyl-amine] | 5.60 | 71% |
| CC(C)c1nc(NCc2ccccn2)c2c(-c3ccccc3)csc2n1 [Example 148, (2-Isopropyl-5-phenyl-thieno[2,3-d]pyrimidin-4-yl)-pyridin-2-ylmethyl-amine] | 5.82 | 88% |
| Cc1nc(NCc2ccco2)c2c(-c3ccccc3)csc2n1 [Example 150, Furan-2-ylmethyl-(2-methyl-5-phenyl-thieno[2,3-d]pyrimidin-4-yl)-amine] | 6.85 | 96.8% |
| FC(F)(F)c1nc(NCc2ccccn2)c2c(-c3ccccc3)csc2n1 [Example 151, (5-Phenyl-2-trifluoromethyl-thieno[2,3-d]pyrimidin-4-yl)-pyridin-2-ylmethyl-amine] | 5.77 | 95% |
| CCc1nc(NCc2ccccn2)c2c(-c3ccccc3)csc2n1 [Example 152, (2-Ethyl-5-phenyl-thieno[2,3-d]pyrimidin-4-yl)-pyridin-2-ylmethyl-amine] | 6.41 | 98.7% |
| CCc1nc(NCc2ccco2)c2c(-c3ccccc3)csc2n1 [Example 153, (2-Ethyl-5-phenyl-thieno[2,3-d]pyrimidin-4-yl)-furan-2-ylmethyl-amine] | 5.44 | 96.8% |
| Cc1nc(NCc2ccccn2)c2c(-c3ccc(F)cc3)csc2n1 [Example 155, [5-(4-Fluorophenyl)-2-methyl-thieno[2,3-d]pyrimidin-4-yl]-pyridin-2-ylmethyl-amine] | 5.79 | 92.2% |
| Cc1sc2ncnc(NCc3ccccn3)c2c1-c1ccccc1 [Example 157, (6-Methyl-5-phenyl-thieno[2,3-d]pyrimidin-4-yl)-pyridin-2-ylmethyl-amine] | 6.62 | 88% |
| c1ccc(-c2csc3ncnc(NC4CCCc5ccccc54)c23)cc1 (stereo not drawn) [Example 158, (5-Phenyl-thieno[2,3-d]pyrimidin-4-yl)-(1,2,3,4-tetrahydro-naphthalen-1-yl)-amine] | 4.75 | 83.4% |
| Cc1sc2ncnc(N3CCCCC3)c2c1-c1ccccc1 [Example 159, 6-Methyl-5-phenyl-4-piperidin-1-yl-thieno[2,3-d]pyrimidine] | 4.87 | 83% |
| c1ccc(-c2csc3ncnc(NCc4csc(-c5cccs5)n4)c23)cc1 [Example 161, (5-Phenyl-thieno[2,3-d]pyrimidin-4-yl)-(2-thiophen-2-yl-thiazol-4-ylmethyl)-amine] | 4.59 | 79.4% |
| c1ccc(-c2nc(CNc3ncnc4scc(-c5ccccc5)c34)cs2)cc1 [Example 162, (2-Phenyl-thiazol-4-ylmethyl)-(5-phenyl-thieno[2,3-d]pyrimidin-4-yl)-amine] | 4.71 | 74.5% |
| c1ccc(CCNc2ncnc3scc(-c4cccs4)c23)cc1 [Example 163, Phenethyl-(5-thiophen-2-yl-thieno[2,3-d]pyrimidin-4-yl)-amine] | 4.84 | 70.8% |
| Brc1sc2ncnc(NCc3ccccn3)c2c1-c1ccccc1 [Example 164, (6-Bromo-5-phenyl-thieno[2,3-d]pyrimidin-4-yl)-pyridin-2-ylmethyl-amine] | 6.28 | 92.8% |
| Brc1sc2ncnc(NCc3ccco3)c2c1-c1ccccc1 [Example 165, (6-Bromo-5-phenyl-thieno[2,3-d]pyrimidin-4-yl)-furan-2-ylmethyl-amine] | 5.80 | 91% |
| Clc1nc(NCc2ccccn2)c2c(-c3ccccc3)csc2n1 [Example 181, (2-Chloro-5-phenyl-thieno[2,3-d]pyrimidin-4-yl)-pyridin-2-ylmethyl-amine] | 5.38 | 96% |
| Clc1nc(NCc2ccco2)c2c(-c3ccccc3)csc2n1 [Example 182, (2-Chloro-5-phenyl-thieno[2,3-d]pyrimidin-4-yl)-furan-2-ylmethyl-amine] | 5.98 | 75.8% |
| c1ccc(-c2csc3nc(NCC4CC4)nc(NCc4ccccn4)c23)cc1 [Example 188, N^2-Cyclopropylmethyl-5-phenyl-N^4-pyridin-2-ylmethyl-thieno[2,3-d]pyrimidine-2,4-diamine] | 5.60 | 98% |
| OCCNc1nc(NCc2ccccn2)c2c(-c3ccccc3)csc2n1 [Example 190, 2-{5-Phenyl-4-[(pyridin-2-ylmethyl)-amino]-thieno[2,3-d]pyrimidin-2-ylamino}-ethanol] | 6.59 | 97.1% |
| COc1nc(NCc2ccccn2)c2c(-c3ccccc3)csc2n1 [Example 191, (2-Methoxy-5-phenyl-thieno[2,3-d]pyrimidin-4-yl)-pyridin-2-ylmethyl-amine] | 6.33 | 91.8% |
